From patent publication US20030217372A1, “Methods of using alpha 1b-adrenergic receptors” (priority 2002, published 2003)
Where a name gives a salt, the structure may show the parent alone.

Legend:
[1] = system: WT and α1b-AR KO mice; test: Oral consumption, two-bottle choice paradigm; type: in vivo; conditions: cocaine 0.2 mg/ml, morphine 0.15 mg/ml
Method: Fluid intake was measured daily by weighting bottles, mice being housed individually. Tested solutions were replaced twice weekly.
Cocaine and morphine: For two weeks, bottles were filled with cocaine or morphine solution of decreasing concentration (one dose per week; 0.3 mg/ml then 0.2 mg/ml for cocaine and 0.2 mg/ml and 0.15 mg/ml for morphine) instead of water, so that mice accustom to the bitter taste. […] Then, to determine mean water consumption and eliminate basal side preference, two bottles of water were given for three days to each animal and basal consumption was calculated as the mean consumption from one bottle on day 2 and the other on day 3. Preference for cocaine (0.2 mg/ml) or morphine (0.15 mg/ml) was then measured over two 12-day sessions, drug and water sides being exchanged between the 2 sessions. Means of drug and water consumptions were estimated for the last 5 days of both 12-day periods.
Rewarding properties of cocaine and morphine were assessed in a two-bottle choice paradigm adapted from the method described by Ferraro et al. (Ferraro et al., Pharmacol. Biochem. Behav. 66:397-401, 2000) for cocaine and Borg and Taylor (Borg et al., Biochem. Behav. 47:633-46, 1994) for morphine.

[2] = system: WT and α1b-AR KO mice; test: Locomotor sensitization induced by repeated drug administration; type: in vivo
Method: Animals spent 90 minutes in the experimental apparatus, received a saline injection and were replaced in the apparatus for 60 minutes. […] Four similar sessions took place every other day. The sixth session took place after a 10-day withdrawal. Locomotor responses measured during the first hour following each injection are presented in function of the number of injections and slope values. N=6 to 15 animals per group.
N=6 to 12 animals per group. […] FIG. 6B represents the time course of the locomotor responses measured every 5 minutes.
(§1) Mice were introduced in a circular corridor (4.5 cm width, 17 cm external diameter) crossed by four infrared beams (1.5 cm above the base) placed at every 90° (Imetronic, Pessac, France). The locomotor activity was counted when animals interrupted two successive beams and, thus, had traveled ¼ of the circular corridor. In each session, the spontaneous activity was recorded for 90 minutes, before mice received either saline or drugs. Their activity was recorded for an additional 60 minutes or 120 minutes period. The first session was a session of habituation to the experimental procedure during which animals received saline (˜3 ml/kg, i.p.). The locomotor response to a drug administration was measured on the following day. Tests were performed between 12:00 and 6:00 p.m. in stable conditions of temperature and humidity.
Data were analyzed with Student's t-test or analysis of variance. For behavioral sensitization experiments, correlation between the number of drug injections and the amplitude of the locomotor responses was analyzed with linear regression and the influence of genotype on this correlation with an analysis of covariance. Genotype and prazosin treatments were between-subjects factors. […] Differences were considered significant when p<0.05.
The rate of sensitization was evaluated by determining the slope of the “number of injections/response” curve (FIG. 5).

[3] = system: WT and α1b-AR KO mice; test: Locomotor activity in circular corridor after acute drug injection; type: in vivo; conditions: for amplitude of locomotor response, α1b-AR KO vs WT mice: D-amphetamine 2 and 3 mg/kg, cocaine and morphine independent of dose
Method: FIG. 2 is a series of dose response graphs that depicts the results of locomotor response to novelty, saline, scopolamine and chloro-APB experiments in WT and α1b-AR KO mice. […] Animals were placed in the experimental apparatus for 90 minutes, received a saline injection and were replaced in the apparatus for 60 minutes. On the following day, animals were placed in the experimental apparatus for 90 minutes, they received an intraperitoneal injection of either saline or scopolamine (1 mg/kg) and their locomotor response was measured every 5 minutes for 60 minutes. FIG. 2D represents the results of locomotor response to chloro-APB; animals were placed in the experimental apparatus for 90 minutes, received a saline injection and were replaced in the apparatus for 60 minutes. On the following days, animals were placed in the experimental apparatus for 90 minutes, they received an intraperitoneal injection of chioro-APB and their locomotor response was measured every 5 minutes for 60 minutes. Several doses of chloro-APB were tested on consecutive days in a random order.
Independent groups of animals were used for each treatment to avoid eventual behavioral sensitization (N=6-16 per group).
as §1

[4] = system: WT and α1b-AR KO mice; test: Morphine-induced conditioned place preference (Y maze); type: in vivo; conditions: for conditioned place preference (CPP): morphine 5 mg/kg s.c.; for locomotor activity during conditioning sessions, morphine vs saline: repeated morphine 5 mg/kg s.c.
Method: FIG. 8 is a series of histograms and dose response graphs that represents the results of a conditioned place preference experiment induced by morphine in WT and α1b-AR KO mice. WT and α1b-AR KO mice were conditioned to receive morphine (5 mg/kg s.c.) in a compartment and a saline injection in the other compartment. The saline group received saline injections in both compartments. N=6 to 11 animals per group. The upper left graph show the time spent in the morphine-associated compartment before conditioning (pre-test), after four morphine injections and four saline injections (post-test 1) and after two supplementary morphine and two supplementary saline injections (post-test 2). *p<0.05 and **p<0.01 when time spent in the drug compartment was different between pretest and post-test 1 or 2 (paired Student's t-test). The upper right graph show scores that correspond to the time spent in the morphine compartment during the post-test (1 and 2) minus time spent in the morphine compartment during the pre-test. p<0.05 when scores were higher for morphine treated mice than for saline treated mice (unpaired Student's t-test). The lower left and lower right graphs show the locomotor activity measured during the 30 minutes of each of the 12 conditioning sessions corresponding either to morphine or to saline injection. ***p<0.001 locomotor activity measured during the morphine session was higher than during the corresponding saline session (paired Student's t-test).
Conditioned place preference was measured in a Y maze. Mice were habituated to the experimental apparatus (Imetronic, Pessac, France) for 3 days (1 hour of exploration of the maze with neutral cues, i.e. smooth gray walls and floor). On the following day, animals were allowed to freely explore the two compartments (with different visual and tactile cues) of the maze for 20 minutes corresponding to a pre-conditioning test. The total amount of time spent in each compartment was recorded and analyzed as previously described (Valverde et al., Psychopharmacology (Berlin) 123:119-26, 1996). For the next […] corresponding to the conditioning session, mice alternatively received morphine (5 mg/kg; s.c.) in one compartment and saline in the other compartment the following day. According to the unbiased method, morphine was equally associated to both compartments and was given either first or second, mice being confined in one compartment for the 30 minutes following each injection. One day after the end of the conditioning session, mice were submitted to a post-conditioning test identical to the test performed before conditioning, i.e. each mice being allowed to explore both compartments for 20 minutes. […] Locomotor activities were recorded with electronic cells in each conditioning session.

[5] = biological target: T1, α1b-ARs (Mus musculus, UniProt P97717); test: Prazosin effect on locomotor responses to D-amphetamine, cocaine and morphine; type: in vivo, mice; conditions: prazosin 1 mg/kg i.p. pre-treatment
T1 construct: endogenous in cells; host or cells: living adult male WT mice (129/Sv x C57BL/6J mixed background), in vivo; α1b-AR KO mice as comparison
T1 sequence (P97717 1-514): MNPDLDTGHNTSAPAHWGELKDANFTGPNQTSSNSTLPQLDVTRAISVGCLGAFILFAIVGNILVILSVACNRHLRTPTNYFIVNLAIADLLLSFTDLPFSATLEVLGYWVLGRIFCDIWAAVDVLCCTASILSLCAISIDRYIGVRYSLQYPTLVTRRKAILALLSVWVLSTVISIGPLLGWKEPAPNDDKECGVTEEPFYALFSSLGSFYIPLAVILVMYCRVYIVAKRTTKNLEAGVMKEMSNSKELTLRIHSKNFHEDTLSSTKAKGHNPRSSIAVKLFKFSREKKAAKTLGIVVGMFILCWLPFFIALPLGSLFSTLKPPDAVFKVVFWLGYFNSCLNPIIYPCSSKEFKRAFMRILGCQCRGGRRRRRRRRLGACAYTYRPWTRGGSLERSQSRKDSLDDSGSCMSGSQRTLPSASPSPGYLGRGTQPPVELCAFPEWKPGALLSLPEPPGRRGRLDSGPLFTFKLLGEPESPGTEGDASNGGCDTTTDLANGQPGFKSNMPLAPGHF
Method: Animals were placed in the experimental apparatus for 150 minutes, received two saline injections after 60 minutes and 90 minutes spent in the corridor. On the following day, animals were placed in the experimental apparatus for 60 minutes, they received an intrapenitoneal injection of either saline or prazosin (1 mg/kg) and were replaced in the corridor for 30 minutes. […] Independent groups of animals were used for each treatment to avoid eventual behavioral sensitization (N=6-12 per group).
as §1, with “In each session, the spontaneous activity was recorded for 90 minutes, before mice received either saline or drugs.” left out

[6] = system: α1-adrenergic receptors; conditions: cited from earlier work
[7] = α1b-AR KO mice, i.p., different doses

Which results are given for `COC(=O)[C@H]1[C@@H](OC(=O)c2ccccc2)C[C@@H]2CC[C@H]1N2C.Cl` [cocaine, cocaine hydrochloride]?
drug consumption vs water in two-bottle choice (rewarding properties) ([1]; KO mice): aversion; drug consumption vs water in two-bottle choice (rewarding properties) ([1]; WT mice): exhibited a preference; locomotor responses of drug-treated vs naive mice ([2]; KO mice, cocaine 5 mg/kg, 5 previous drug injections): no significant difference; rate of sensitization: slope of the number of injections/response curve ([2]; WT mice, cocaine 5 mg/kg): 101.0±47.4; rate of sensitization: slope of the number of injections/response curve ([2]; WT mice, cocaine 15 mg/kg): 198.2±48.19; rate of sensitization: slope of the number of injections/response curve ([2]; α1b-AR KO mice, cocaine 5 mg/kg): −0.155±20.96; rate of sensitization: slope of the number of injections/response curve ([2]; α1b-AR KO mice, cocaine 15 mg/kg): 102.8±19.37; amplitude of locomotor response, α1b-AR KO vs WT mice [3]: significantly altered by the genotype; locomotor activity ([3]; WT mice, i.p., different doses): dose-dependent stimulation of locomotor activity; locomotor activity [3, 7]: also increased locomotor activity

With `CN1[C@@H]2C[C@@H](OC(=O)[C@H](CO)c3ccccc3)C[C@H]1[C@@H]1O[C@@H]12` [scopolamine, scopolamine hydrobromide] as the compound, how does the “stimulatory effect on locomotor activity, WT vs α1b-AR KO mice” value ([3]; scopolamine 1 mg/kg i.p., 60 minutes) read?
The value was “equivalent”.

Which results are given for `Br.C=CCN1CCc2c(cc(O)c(O)c2Cl)C(c2ccccc2)C1` (stereo not shown) [chloro-APB, chloro-APB hydrobromide]?
locomotor activity ([3]; WT mice, chloro-APB i.p., several doses): dose-dependently increase locomotor activity; amplitudes of locomotor responses, WT vs α1b-AR KO mice ([3]; chloro-APB i.p., several doses): No significant differences

What does the source list for `CN1CC[C@]23c4c5ccc(O)c4O[C@H]2[C@@H](O)C=C[C@H]3[C@H]1C5` [morphine, morphine chiorhydrate]?
conditioned place preference (CPP) ([4]; KO mice): not in KO mice; locomotor activity during conditioning sessions, morphine vs saline ([4]; KO mice): no significant difference; conditioned place preference (CPP) ([4]; WT mice): significant CPP was induced; locomotor activity during conditioning sessions, morphine vs saline ([4]; WT mice): induce a behavioral sensitization in WT; drug consumption vs water in two-bottle choice (rewarding properties) ([1]; KO mice): aversion; rate of sensitization: slope of the number of injections/response curve ([2]; WT mice, morphine 7.5 mg/kg): 146.7±51.4; rate of sensitization: slope of the number of injections/response curve ([2]; α1b-AR KO mice, morphine 7.5 mg/kg): 38.17±19.48; amplitude of locomotor response, α1b-AR KO vs WT mice [3]: significantly altered by the genotype; stereotyped walking behavior ([3]; KO mice): induced a stereotyped walking behavior; locomotor activity ([3]; WT mice, i.p., different doses): dose-dependent stimulation of locomotor activity; locomotor activity [3, 7]: also increased locomotor activity

For `COc1cc2nc(N3CCN(C(=O)c4ccco4)CC3)nc(N)c2cc1OC` [prazosin], which “effect on locomotor response to D-amphetamine” value ([5]; WT mice, D-amphetamine 3 mg/kg) is on record?
The value was “significantly reduced”.

And the “effect on locomotor response to cocaine” value ([5]; WT mice, cocaine 20 mg/kg)?
Its value is “significantly reduced”.

What about the “effect on locomotor response to morphine” value ([5]; WT mice, morphine 10 mg/kg) of the same compound?
Its value is “significantly reduced”.

What about the “effect on locomotor responses to D-amphetamine, cocaine and morphine” value ([5]; α1b-AR KO mice) of the same compound?
The value was “failed to modify”.

What about the “behavioral sensitization with prazosin co-administered with repeated cocaine or D-amphetamine injections” value ([6]; background statement) of the same compound?
Its value is “no behavioral sensitization is observed”.

What about the “locomotor hyperactivity induced by D-amphetamine, cocaine, GBR12783 and morphine” value ([6]; background statement) of the same compound?
The value was “completely inhibits”.

And the “D-amphetamine-induced locomotor hyperactivity and extracellular DA responses in the nucleus accumbens” value ([6]; rats, Darracq et al. 1998)?
Its value is “inhibits D-amphetamine-induced locomotor hyperactivity without modifying extracellular DA responses”.
